According to patent US7541352B2, “Compounds for the treatment of hepatitis C” (Bristol-Myers Squibb Company, priority 2007, dated 2009):
Where two headings read alike, the source gives them in different places.

Legend:
HCV replicon cells = experiment: HCV replicon FRET assay; assay type: cell-based; details: Hepatitis C virus
Description: FRET Assay Preparation. The HCV FRET screening assay was performed in 96-well cell culture plates. The FRET peptide (Anaspec, Inc.) (Taliani et al., Anal. Biochem. 1996, 240, 60-67) contains a fluorescence donor, EDANS, near one end of the peptide and an acceptor, DABCYL, near the other end. The fluorescence of the peptide is quenched by […] resonance energy transfer (RET) between the donor and the acceptor, but as the NS3 protease cleaves the peptide the products are released from RET quenching and the fluorescence of the donor becomes apparent. The assay reagent was made as follows: 5× cell Luciferase cell culture lysis reagent from Promega (#E153A) diluted to 1× with dH2O, NaCl added to 150 mM final, the FRET peptide diluted to 20 μM final from a 2 mM stock.
To prepare plates, HCV replicon cells, with or without a Renilla luciferase reporter gene, were trypsinized and plated in a 96-well plate with titrated test compounds added in columns 3 through 12; columns 1 and 2 contained a control compound (HCV control inhibitor), and the bottom row contained cells with DMSO only. The plates were then placed in a CO2 incubator at 37° C.
Assays. Subsequent to addition of the test compounds described above (FRET Assay Preparation), at various times the plate was removed and Alamar blue solution (Trek Diagnostics, #00-100) was added to measure cellular toxicity. After reading in a Cytoflour 4000 instrument (PE Biosystems), plates were rinsed with PBS and then used for FRET assay by the addition of 30 ul of the FRET peptide assay reagent described above (FRET Assay Preparation) per well. The plate was then placed into the Cytoflour 4000 instrument which had been set to 340 excite/490 emission, automatic mode for up to 20 cycles and the plate read in a kinetic mode. Typically, the signal to noise using an endpoint analysis after the reads was at least three-fold. Alternatively, after Alamar blue reading, plates were rinsed with PBS, then used for luciferase assay using the Promega Dual-Glo Luciferase Assay System or the Promega EnduRen Live Cell Substrate assay.
Compound analysis was performed by quantification of the relative HCV replicon inhibition and the relative cytotoxicity values. To calculate cytoxicity values, the average Alamar Blue fluorescence signals from the control wells were set as 100% non-toxic. The individual signals in each of the compound test wells were then divided by the average control signal and multiplied by 100% to determine […]. To calculate the HCV replicon inhibition values, an average background value was obtained from the two wells containing the highest amount of HCV control inhibitor at the end of the assay period. These numbers were similar to those obtained from naïve Huh-7 cells. The background numbers were then subtracted from the average signal obtained from the control wells and this number was used as 100% activity. The individual signals in each of the compound test wells were then divided by the averaged control values after background subtraction and multiplied by 100% to determine percent activity. EC50 values were calculated as the concentration which caused a 50% reduction in FRET or luciferase activity. The two numbers generated for the compound plate, percent cytoxicity and percent activity, were used to determine compounds of interest for further analysis.

[1] = molecular target: T1, HCV NS5B RdRp genotype 1b (Hepatitis C virus genotype 1b, UniProt Q9WMX2); experiment: Modified HCV NS5B RdRp enzyme assay (preincubation protocol); assay type: biochemical
T1 construct: The protein was expressed with an 18 amino acid C-terminal truncation to enhance the solubility; made in house; host or cells: E. coli BL21(DE3), pET21a
Description: HCV NS5B RdRp cloning, expression, and purification. The cDNA encoding the NS5B protein of HCV, genotype 1b, was cloned into the pET21a expression vector. The protein was expressed with an 18 amino acid C-terminal truncation to enhance the solubility. The E. coli competent cell line BL21(DE3) was used for expression of the protein. Cultures were grown at 37° C. for ˜4 hours until the cultures reached an optical density of 2.0 at 600 nm. The cultures were cooled to 20° C. and induced with 1 mM IPTG. Fresh ampicillin was added to a final concentration of 50 μg/ml and the cells were grown overnight at 20° C.
Cell pellets (3 L) were lysed for purification to yield 15-24 mgs of purified NS5B. The lysis buffer consisted of 20 mM Tris-HCl, pH 7.4, 500 mM NaCl, 0.5% triton X-100, 1 mM DTT, 1 mM EDTA, 20% glycerol, 0.5 mg/ml lysozyme, 10 mM MgCl2, 15 ug/ml deoxyribonuclease I, and Complete TM protease inhibitor tablets (Roche). After addition of the lysis buffer, frozen cell pellets were resuspended using a tissue homogenizer. To reduce the viscosity of the sample, aliquots of the lysate were sonicated on ice using a microtip attached to a Branson sonicator. The sonicated lysate was centrifuged at 100,000×g for 1 hr at 4° C. and filtered through a 0.2 μm filter unit (Corning).
The protein was purified using two sequential chromatography steps: Heparin sepharose CL-6B and polyu sepharose 4B (Pharmacia). The chromatography buffers were identical to the lysis buffer but contained no lysozyme, deoxyribonuclease I, MgCl2 or protease inhibitor and the NaCl concentration of the buffer was adjusted according to the requirements for charging the protein onto the column. Each column was eluted with a NaCl gradient which varied in length from 5-50 column volumes depending on the column type. After the final chromatography step, the resulting purity of the enzyme is >90% based on SDS-PAGE analysis. The enzyme was aliquoted and stored at −80° C.
Standard HCV NS5B RdRp enzyme assay. HCV RdRp genotype 1b assays were run in a final volume of 60 μl in 96 well plates (Corning 3600). The assay buffer is composed of 20 mM Hepes, pH 7.5, 2.5 mM KCl, 2.5 mM MgCl2, 1 mM DTT, 1.6 U RNAse inhibitor (Promega N2515), 0.01 mg/ml BSA (Sigma B6917), and 2% glycerol. All compounds were serially diluted (3-fold) in DMSO and diluted further in water such that the final concentration of DMSO in the assay was 2%. HCV RdRp genotype 1b enzyme was used at a final concentration of 28 nM. A polyA template was used at 6 nM, and a biotinylated oligo-dT 12 primer was used at 180 nM final concentration. Template was obtained commercially (Amersham 27-4110). Biotinylated primer was prepared by Sigma Genosys. 3H-UTP was used at 0.6 μCi (0.29 μM total UTP). Reactions were initiated by the addition of enzyme, incubated at 30° C. for 60 min, and stopped by adding 25 μl of 50 mM EDTA containing SPA beads (4 μg/μl, Amersham RPNQ 0007). Plates were read on a Packard Top Count NXT after >1 hr incubation at room temperature.
Modified HCV NS5B RdRp enzyme assay. A modified enzyme assay was performed essentially as described for the standard enzyme assay except for the following: The biotinylated oligo dT12 primer was precaptured on streptavidin-coated SPA beads by mixing primer and beads in assay buffer and incubating at room temperature for one hour. Unbound primer was removed after centrifugation. The primer-bound beads were resuspended in 20 mM Hepes buffer, pH 7.5 and used in the assay at final concentrations of 20 nM primer and 0.67 μg/μl beads. Order of addition in the assay: enzyme (1.75 nM) was added to diluted compound followed by the addition of a mixture of template (0.36 nM), 3H-UTP (0.6 μCi, 0.29 μM), and primer-bound beads, to initiate the reaction; concentrations given are final. Reactions were allowed to proceed for 4 hours at 30° C.
IC50 values for compounds were determined using seven different [I]. […]

[2] = HCV replicon cells, determined using the FRET assay, read-out: EC50
[3] = HCV NS5B RdRp, determined using the preincubation protocol, read-out: IC50

T1 sequence (Q9WMX2 2420-2992): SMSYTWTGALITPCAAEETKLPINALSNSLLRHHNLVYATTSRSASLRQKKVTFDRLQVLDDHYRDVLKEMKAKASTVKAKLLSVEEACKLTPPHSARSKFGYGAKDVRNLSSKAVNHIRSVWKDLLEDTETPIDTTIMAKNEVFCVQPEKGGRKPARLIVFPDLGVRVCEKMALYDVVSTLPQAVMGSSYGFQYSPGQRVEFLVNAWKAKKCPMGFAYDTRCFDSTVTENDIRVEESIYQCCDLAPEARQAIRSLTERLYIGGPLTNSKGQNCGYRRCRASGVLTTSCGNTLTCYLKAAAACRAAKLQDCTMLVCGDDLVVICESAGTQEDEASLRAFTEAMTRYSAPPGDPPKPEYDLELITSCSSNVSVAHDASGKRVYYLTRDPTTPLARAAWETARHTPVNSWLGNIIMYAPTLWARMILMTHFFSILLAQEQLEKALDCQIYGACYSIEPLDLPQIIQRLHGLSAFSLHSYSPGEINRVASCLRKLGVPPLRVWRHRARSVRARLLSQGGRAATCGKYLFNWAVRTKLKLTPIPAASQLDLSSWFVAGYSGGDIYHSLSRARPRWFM

| SMILES | EC50 (HCV replicon cells; [2]) [nM] | IC50 [1, 3] [nM] | EC50 (HCV replicon cells) [nM] | IC50 [1] [nM] |
| --- | --- | --- | --- | --- |
| COc1ccc2c(c1)CC(NC(=O)C(=O)N(C)C)Cn1c-2c(C2CCCCC2)c2ccc(C(=O)NS(=O)(=O)N(C)C)cc21 (centres unmarked) | 1 to 500 | 1 to 500 | – | – |
| COc1ccc2c(c1)C1CC1(NC(=O)C(=O)N(C)C)Cn1c-2c(C2CCCCC2)c2ccc(C(=O)NS(=O)(=O)N(C)C)cc21 (centres unmarked) | 1 to 500 | 1 to 500 | – | – |
| COc1ccc2c(c1)C1CC1(NC(=O)C(=O)N1CCOCC1)Cn1c-2c(C2CCCCC2)c2ccc(C(=O)NS(=O)(=O)N(C)C)cc21 (centres unmarked) | 1 to 500 | 1 to 500 | – | – |
| COc1ccc2c(c1)C1CC1(NC(=O)C(=O)N1C3CCC1CN(C)C3)Cn1c-2c(C2CCCCC2)c2ccc(C(=O)NS(=O)(=O)N(C)C)cc21 (centres unmarked) | – | – | 1 to 500 | 1 to 500 |
| COC(=O)C(=O)NC12CC1c1cc(OC)ccc1-c1c(C3CCCCC3)c3ccc(C(=O)NS(=O)(=O)N(C)C)cc3n1C2 (centres unmarked) | 1 to 500 | 1 to 500 | – | – |
| COc1ccc2c(c1)C1CC1(NC(=O)C(=O)N1CC(C)N(C)C(C)C1)Cn1c-2c(C2CCCCC2)c2ccc(C(=O)NS(=O)(=O)N(C)C)cc21 (centres unmarked) | 1 to 500 | 1 to 500 | – | – |
| COc1ccc2c(c1)C1CC1(NC(=O)C(=O)N1CCN(C)CC1)Cn1c-2c(C2CCCCC2)c2ccc(C(=O)NS(=O)(=O)N(C)C)cc21 (centres unmarked) | 1 to 500 | 1 to 500 | – | – |
| COc1ccc2c(c1)C1CC1(NC(=O)C(=O)N1C[C@@H](C)N(C)[C@@H](C)C1)Cn1c-2c(C2CCCCC2)c2ccc(C(=O)NS(=O)(=O)N(C)C)cc21 (some centres unmarked) | 1 to 500 | 1 to 500 | – | – |
| COc1ccc2c(c1)C1CC1(NC(=O)C(=O)N1CC(OC)C1)Cn1c-2c(C2CCCCC2)c2ccc(C(=O)NS(=O)(=O)N(C)C)cc21 (centres unmarked) | 1 to 500 | 1 to 500 | – | – |
| COc1ccc2c(c1)[C@@H]1C[C@]1(NC(=O)C(=O)N1CCOCC1c1ccccc1)Cn1c-2c(C2CCCCC2)c2ccc(C(=O)NS(=O)(=O)N(C)C)cc21 (some centres unmarked) | 1 to 500 | 1 to 500 | – | – |
| COc1ccc2c(c1)C1CC1(N(C)C(=O)C(=O)N1CC(OC)C1)Cn1c-2c(C2CCCCC2)c2ccc(C(=O)NS(=O)(=O)N(C)C)cc21 (centres unmarked) | 1 to 500 | 1 to 500 | – | – |
| COc1ccc2c(c1)[C@@H]1C[C@]1(N(C)C(=O)C(=O)N1CCOCC1c1ccccc1)Cn1c-2c(C2CCCCC2)c2ccc(C(=O)NS(=O)(=O)N(C)C)cc21 (some centres unmarked) | 1 to 500 | 1 to 500 | – | – |
| COc1ccc(C2COCCN2C(=O)C(=O)NC23CC2c2cc(OC)ccc2-c2c(C4CCCCC4)c4ccc(C(=O)NS(=O)(=O)N(C)C)cc4n2C3)cc1 (centres unmarked) | 1 to 500 | 1 to 500 | – | – |
| COc1ccc2c(c1)C1CC1(NC(=O)C(=O)N1CCCN(C)CC1)Cn1c-2c(C2CCCCC2)c2ccc(C(=O)NS(=O)(=O)N(C)C)cc21 (centres unmarked) | 1 to 500 | 1 to 500 | – | – |
| COc1ccc2c(c1)C1CC1(NC(=O)C(=O)N1CCN3CCC1CC3)Cn1c-2c(C2CCCCC2)c2ccc(C(=O)NS(=O)(=O)N(C)C)cc21 (centres unmarked) | 1 to 500 | 1 to 500 | – | – |
| COc1ccc2c(c1)CC(NC(=O)C(=O)N1C3CCC1CN(C)C3)Cn1c-2c(C2CCCCC2)c2ccc(C(=O)NS(=O)(=O)N(C)C)cc21 (centres unmarked) | – | – | 1 to 500 | 1 to 500 |
| COc1ccc2c(c1)C1CC1(NC(=O)C(=O)N(C)C)Cn1c-2c(C2CCCCC2)c2ccc(C(=O)NS(=O)(=O)C(C)C)cc21 (centres unmarked) | 1 to 500 | 1 to 500 | – | – |
| Cc1ccc2c(c1)C1CC1(NC(=O)C(=O)N(C)C)Cn1c-2c(C2CCCCC2)c2ccc(C(=O)NS(=O)(=O)C3CCC3)cc21 (centres unmarked) | 1 to 500 | 1 to 500 | – | – |
| CCC(C)S(=O)(=O)NC(=O)c1ccc2c(C3CCCCC3)c3n(c2c1)CC1(NC(=O)C(=O)N(C)C)CC1c1cc(OC)ccc1-3 (centres unmarked) | 1 to 500 | 1 to 500 | – | – |
| COc1ccc2c(c1)C1CC1(NC(=O)C(=O)N(C)C)Cn1c-2c(C2CCCCC2)c2ccc(C(=O)NS(=O)(=O)CC(C)(C)C)cc21 (centres unmarked) | 1 to 500 | 1 to 500 | – | – |
| COc1ccc2c(c1)C1CC1(NC(=O)N1C3CCC1CN(C)C3)Cn1c-2c(C2CCCCC2)c2ccc(C(=O)NS(=O)(=O)N(C)C)cc21 (centres unmarked) | – | – | 1 to 500 | 1 to 500 |
| COc1ccc2c(c1)C1CC1(NS(=O)(=O)N1CCOCC1)Cn1c-2c(C2CCCCC2)c2ccc(C(=O)NS(=O)(=O)N(C)C)cc21 (centres unmarked) | 1 to 500 | 1 to 500 | – | – |
| COc1ccc(S(=O)(=O)NC23CC2c2cc(OC)ccc2-c2c(C4CCCCC4)c4ccc(C(=O)NS(=O)(=O)N(C)C)cc4n2C3)c(OC)c1 (centres unmarked) | 1 to 500 | 1 to 500 | – | – |
| COc1ccc2c(c1)C1CC1(NC(=O)N1CC3CN(Cc4ccccc4)CC(C1)N3Cc1ccccc1)Cn1c-2c(C2CCCCC2)c2ccc(C(=O)NS(=O)(=O)N(C)C)cc21 (centres unmarked) | – | – | – | 1 to 500 |
| COc1ccc2c(c1)[C@@H]1C[C@]1(NC(=O)N1C3CCC1CN(C)C3)Cn1c-2c(C2CCCCC2)c2ccc(C(=O)NS(=O)(=O)N(C)C)cc21 | – | – | 1 to 500 | 1 to 500 |
| COc1ccc2c(c1)C1CC1(NS(=O)(=O)C1CCN(C(=O)OCc3ccccc3)CC1)Cn1c-2c(C2CCCCC2)c2ccc(C(=O)NS(=O)(=O)N(C)C)cc21 (centres unmarked) | 1 to 500 | 1 to 500 | – | – |
| COc1ccc2c(c1)C1C[C@@]1(NC(=O)C(=O)N(C)C)Cn1c-2c(C2CCCCC2)c2ccc(C(=O)NS(=O)(=O)N(C)C)cc21 (some centres unmarked) [drawing 37] | 1 to 500 | – | – | – |
| COc1ccc2c(c1)[C@H]1C[C@@]1(NC(=O)C(=O)N(C)C)Cn1c-2c(C2CCCCC2)c2ccc(C(=O)NS(=O)(=O)N(C)C)cc21 [drawing 37] | – | 1 to 500 | – | – |
